Results on seven compounds are retold here after PMC8522962 (Reproductive Toxicology (Elmsford, N.y.), 2021).

The test system of data set [1] is T/Bra::GFP mouse gastruloids. Nature of the data set: Mouse gastruloid assay, T/Bra::GFP reporter line. The format is cell-based. The note with it: for adverse effects on reporter gene expression (words): mouse system, up to the highest concentration levels. (In general: A reporter such as luciferase makes a cellular process visible.)
A further data set relates to mouse gastruloids. As to the kind of experiment: Mouse gastruloid assay, both lines or line not specified. The format is cell-based. The note with it: for overall outcome in the mouse gastruloid model: summary statements; for mouse Gastruloid LOAEL: lowest observable adverse effect level.
In data set [2] the test system is differentiation of mouse embryonic stem cells (ES-D3) into beating cardiomyocytes. As to the kind of experiment: Mouse embryonic stem cell test. The format is cell-based. The following applies: for mEST ID50: half maximal inhibitory concentration of cardiomyocyte differentiation.
Another data set deals with hiPSC-derived EBs. Nature of the data set: Human 3D in vitro model, hiPSC-derived embryoid bodies. The note with it: threshold concentration where 20 % of teratogenicity was detected by differential expression. The format is cell-based.
A further data set deals with rats. The following applies: read-out: rat in vivo LOAEL Cmax; maximum plasma concentration at LOAEL; cited from earlier work.
Another data set concerns rabbits. The note with it: cited from earlier work.
The conditions of data set [3]: EMA ICH S5 (R3) guidelines; cited from earlier work.
For data set [4], the system named is RUES2-GLR human gastruloids. Nature of the data set: Human gastruloid assay, RUES2-GLR line. The note with it: for Human Gastruloid LOAEL: lowest observable adverse effect level; for overall outcome in the human gastruloid model: summary statements; for adverse effects on reporter gene expression (words): up to the highest concentration levels.
The test system of data set [5] is E14Tg2A mouse gastruloids. Nature of the data set: Mouse gastruloid assay, E14Tg2A line. The format is cell-based.
A further data set has as its system plasma protein. The following applies: cited from earlier work; for free fractions of unbound compound: human therapeutic concentrations.

“Also recorded” adds a separate entry of the source.

In the case of `COc1ccccc1Oc1c(NS(=O)(=O)c2ccc(C(C)(C)C)cc2)nc(-c2ncccn2)nc1OCCO` [Bosentan], the “morphology vs controls” value in data set [1] (4 μM and 8 μM) is “larger and more elongated than controls”. Moreover, the “GFP expression” value in data set [1] (cultured in the presence of bosentan (4-18 μM)) was “robust GFP expression that was localised to the pole of the elongations”. Moreover, the “size and morphogenesis vs controls” value with mouse gastruloids (4–18 μM, mouse gastruloids) is on record as “slightly larger than controls, but did not appear to be defective in morphogenesis”. In addition, in data set [2], the “mEST prediction” value was “false negative” and the “mEST ID50” value was 68.2 µM. Further, the “hiPSC- derived EBs TC20” value in the data set with hiPSC-derived EBs is 13 µM. For the same compound, the Cmax in the data set on rats is 30 µM. The “effects in rabbits in vivo” value with rabbits is on record as “no effects”. In data set [3], the Teratogenicity classification result was “Positive”. Also, in data set [4] (4 μM), the “germ layer representation and axial elongation” value was “maintain representation of all three germ layers and axial elongation morphogenesis”; the “size vs DMSO” value is recorded as “marginally smaller than DMSO-treated gastruloids”. Besides, the “SOX17 expression” value in [4] (18 μM) is given as “lose expression of SOX17”. In addition, in data set [4] (18 μM, 72 h, vehicle controls 88 %), the “human gastruloids showing low levels of SOX17 expression, on average” value is 33%. Besides, the “Human Gastruloid LOAEL” value in data set [4] (72 h) worked out at 18 µM. Further, in data set [4], the “overall outcome in the human gastruloid model” value is given as “potentially teratogenic”.

With `O=C1CCC(N2C(=O)c3ccccc3C2=O)C(=O)N1` (centres unmarked) [Thalidomide], the “GFP expression” value in data set [1] (increasing concentrations (100 μM)) is listed as “reduced GFP expression”. For the same compound, the “size and morphology” value in the data set on mouse gastruloids (0.4−100 μM, both lines) is given as “not significantly altered in either size or morphology”. For the same compound, the “overall outcome in the mouse gastruloid model” value with mouse gastruloids is “adverse effects on gene expression”. Moreover, the “mEST prediction” value in data set [2] is “false negative”. Also, the “mEST inhibition of cardiomyocytes” value in data set [2] (concentrations up to 2 mM) was “did not show any inhibition of cardiomyocytes”. Also, the “hiPSC- derived EBs TC20” value in the data set on hiPSC-derived EBs is less than 0.1 µM. Besides, the Cmax in the data set on rats is 19 µM. Further, the Teratogenicity classification result in [3] is listed as “Positive”. Moreover, in data set [4] (0.4 μM and 100 μM), the “SOX2 expression” value was “clearly increased SOX2 expression” and the “gastruloid size” value is “significant decreases in gastruloid size”. Besides, the “Human Gastruloid LOAEL” value in data set [4] (72 h) was 0.4 µM. The “overall outcome in the human gastruloid model” value in data set [4] was “potentially teratogenic”.

Take `O=C1NC(=O)C(c2ccccc2)(c2ccccc2)N1` [Phenytoin]: the “size and morphology vs vehicle-only controls” value in [5] (1−20 μM, 0.1 % DMSO control) is “not significantly different compared to the vehicle-only controls in terms of size and morphology”. Moreover, the “size and circularity” value in data set [1] (20 μM) was “significantly smaller and more circular”. Also, the “T/Bra::GFP expression” value in data set [1] (> 5 μM) is on record as “negatively correlated with increasing concentrations of phenytoin”. The “overall outcome in the mouse gastruloid model” value in the data set with mouse gastruloids was “adverse effects on gene expression”. For the same compound, the “mEST ID50” value in data set [2] was found to be 0.39 µM. Moreover, the “hiPSC- derived EBs TC20” value in the data set on hiPSC-derived EBs is less than 8 µM. For the same compound, the Cmax in the data set on rats is 106 µM. The Teratogenicity classification result in [3] was “Positive”. For the same compound, in the data set on plasma protein, the plasma protein binding was 90% and the “free fractions of unbound compound” value is 3 to 9 µM. In [4] (20 μM, One-Way ANOVA α = 0.05), the “area” value is on record as “significantly reduced area”. Also, the “proportions and patterns of gene expression” value in data set [4] (1−20 μM) is “maintained proportions and patterns of gene expression that were comparable to controls”. Further, the “overall outcome in the human gastruloid model” value in data set [4] is listed as “falls below the limit of detectable effect”.

Regarding `CC1(C)S[C@@H]2[C@H](NC(=O)Cc3ccccc3)C(=O)N2[C@H]1C(=O)O` [Penicillin G], in data set [5] (63 μM, 1 mM and 2 mM, water control), the “morphological changes vs control” value is on record as “small morphological changes resulting in slightly larger, more elongated or less circular gastruloids”. The “adverse effects on reporter gene expression (words)” value was “No observable adverse effects on reporter gene expression” in data set [1] (listed as Penicillin); “did not cause any adverse effects on reporter gene expression” in [1] (listed as penicillin G); “No observable adverse effects on reporter gene expression” in data set [4] (human system, listed as Penicillin); “did not cause any adverse effects on reporter gene expression” in data set [4] (human system, listed as penicillin G). Besides, the “effect on size” value in data set [4] (63 μM and 1 mM) is listed as “minimal effects of increased size”.

As for `CC1=C(/C=C/C(C)=C/C=C/C(C)=C/C(=O)O)C(C)(C)CCC1` [Retinoic Acid, All-trans retinoic acid], in data set [1] (all ATRA treatments (0.4-100 nM), 120 h), the “T/Bra::GFP expression” value is recorded as “apparent loss of T/Bra::GFP expression”. Also, the “effect on axial extension” value in the data set with mouse gastruloids (0.4 nM, 120 h, both lines) is listed as “significant inhibition of axial extension”. For the same compound, in the data set on mouse gastruloids (33 nM, 100 nM, 120 h, both lines), the “effect on size and shape” value is “drastically reduced size, and gastruloids assumed a spherical shape without any axial elongation”. Besides, in the data set on mouse gastruloids (120 h), the “dosages likely to be cytotoxic or cytostatic in the mouse system” value is on record as greater than 0.4 nM and the “mouse Gastruloid LOAEL” value is 0.0004 µM. Further, in the data set on mouse gastruloids, the “overall outcome in the mouse gastruloid model” value is “similarly teratogenic; also recorded: adverse morphological effects”. Moreover, the “mEST ID50” value in data set [2] came out at 0.0037 µM. The “mEST ID50” value in [2] (listed as ATRA) came out at 0.003 µM. Further, the Cmax with rats is 1 µM. In addition, the Teratogenicity classification result in data set [3] is recorded as “Positive”. In addition, in data set [4] (0.4 nM, 72 h), the “germ layer representation and axial elongation” value was “maintain an equivalent representation of the three germ layers and underwent partial axial elongation”; the “size and circularity vs controls” value was “significantly smaller and more circular than controls”. Moreover, the “axial extension and SOX2 expression” value in data set [4] (33 nM, 72 h) was “completely inhibited axial extension and promoted the over-expression of SOX2”. Also, the “BRA expression” value in [4] (33 nM, 72 h, three replicates) was “no detectable BRA expression”. In data set [4] (33 nM, 72 h, DMSO controls 88 %), the “human gastruloids expressing SOX17 at low levels, on average” value is recorded as 42%. Besides, the “Human Gastruloid LOAEL” value in data set [4] (72 h) came out at 0.0004 µM. Moreover, the “overall outcome in the human gastruloid model” value in data set [4] is recorded as “similarly teratogenic”.

Take `CC(C)Cc1ccc(C(C)C(=O)O)cc1` (centres unmarked) [Ibuprofen]: in [1] (all ibuprofen treatments tested (63-250 μM)), the “GFP expression” value is reported as “marked increase in GFP expression”. Also, the “growth and morphology vs vehicle-only controls” value in the data set with mouse gastruloids (63−250 μM, 0.12 % DMSO control) is reported as “no consistent effect on growth or morphology”. In addition, the “mouse Gastruloid LOAEL” value came out at 63 µM with mouse gastruloids (120 h) and 63 µM with mouse gastruloids (120 h, listed as ibuprofen). In addition, the “overall outcome in the mouse gastruloid model” value with mouse gastruloids is given as “adverse effects on gene expression”. Moreover, the “mEST prediction” value in data set [2] is “negative”. For the same compound, the “hiPSC- derived EBs TC20” value in the data set on hiPSC-derived EBs turned out to be 855 µM. The Cmax with rats is 1600 µM. In the data set on rabbits, the “effects in rabbits in vivo” value is “no effects”. Further, the “SOX2 expression vs vehicle-only controls” value in data set [4] (63 μM) is listed as “marginally elevated”. Moreover, the “size and circularity” value in data set [4] (63 μM and 250 μM) is “reduced size and increased circularity”. The “Human Gastruloid LOAEL” value in data set [4] (72 h) came out at 63 µM.

As for `CCCC(CCC)C(=O)O` [Valproic Acid], in data set [1] (4 μM), the “GFP expression” value is recorded as “maintained localised GFP expression”. Also, in [1] (concentrations higher than 4 μM), the “size, elongation and GFP expression” value is “smaller gastruloids, impaired elongation and a loss of GFP expression”. Moreover, the “tolerability” value in the data set with mouse gastruloids (4 μM, mouse gastruloids) is recorded as “fairly well tolerated”. The “toxicity judged from decrease in gastruloid size” value with mouse gastruloids (1 mM, mouse system) is given as “seem to induce toxicity”. Moreover, in the data set with mouse gastruloids (concentrations higher than 333 μM, mouse gastruloids), the “effect on shape and size” value is on record as “clearly spherical mouse gastruloids”. Further, the “mouse Gastruloid LOAEL” value with mouse gastruloids (120 h) is 333 µM. Further, in the data set with mouse gastruloids, the “overall outcome in the mouse gastruloid model” value is reported as “similarly teratogenic; also recorded: adverse morphological effects”. In data set [2], the “mEST ID50” value turned out to be 589 µM. Also, the “hiPSC- derived EBs TC20” value in the data set on hiPSC-derived EBs was 85 µM. The Cmax with rats is 1600 µM. The Teratogenicity classification entry in data set [3] is listed as “Positive”. In the data set with plasma protein, the plasma protein binding is recorded as no less than 90% and the “free fractions of unbound compound” value is on record as 0.3−0.5 mM. Further, in data set [4] (4 μM, human gastruloids), the “effect on size” value is “decrease in size” and the “tolerability” value is “fairly well tolerated”. Moreover, in data set [4] (333 μM), the “SOX2 and BRA reporter expression vs 0.2 % DMSO controls” value is “very low SOX2 expression and elevated BRA expression”; the “axial elongation morphogenesis” value was “failed to undergo axial elongation morphogenesis”. Also, in data set [4] (1 mM, human system), the “toxicity judged from decrease in gastruloid size” value is “seem to induce toxicity”. Besides, the “Human Gastruloid LOAEL” value in [4] (72 h) came out at 333 µM. Also, in data set [4], the “overall outcome in the human gastruloid model” value is recorded as “similarly teratogenic”.

As usually defined, the Cmax is the highest concentration seen after dosing.
